Data: patent US8404688B2, “Nitrone compounds, process of preparation thereof, and use thereof in medicament manufacture” (Jinan University, priority 2008, dated 2013)

Tests used:
[1] = test system: MCAo rat stroke model; assay: Protection of stroke in MCAo rats (infarct area, TTC staining); format: in vivo; conditions: TBN 80 mg/kg i.p. 1 h after occlusion; 2 h ischemia, 24 h reperfusion; FIG. 6
Description: Female Sprague-Dawley rats (210-240 g) were anesthetized with 10% chloral hydrate (400 mg/kg) i.p. The right common carotid artery (CCA) was carefully exposed. The occipital branch of the external carotid artery (ECA) was coagulated and the internal carotid artery (ICA) was isolated. A poly-L-lysine-coated nylon suture (0.32 mm in diameter) was inserted into the ECA and advanced retrogradely until the bifurcation of the CCA from where it was advanced a distance of approximately 18-20 mm into the ICA to occlude the MCA. A ligature was tied around the ICA, the incisions were closed, and the animal was extubated.
TMP (50 mg/kg), TBN (80 mg/kg), PBN (65 mg/kg), Eda (62 mg/kg) and saline were administered i.p. 1 h after MAC occlusion, respectively. After 2 h of MCA occlusion, the suture was withdrawn to allow reperfusion. After 24 h of reperfusion, the animals were re-anesthetized with 10% chloral hydrate (400 mg/kg) i.p., and were then decapitated. The brain was quickly removed, rinsed with PBS, and stored in a refrigerator at −20° C. until it was frozen. The brain was sliced with a blade at every 2-mm from the frontal pole, and the slices were stained with 2,3,5-triphenyltetrazolium chloride (TTC, 0.5% in normal saline) for 30 min at 37° C. […] The area of infarction was quantified by the Osiris 4 software, and the results were expressed as the percentage of the total brain section area.

[2] = test system: Cortical neurons; assay: Protection of neuronal cells from NMDA excitotoxic damage; format: cell-based; conditions: drug 1-1000 μM, NMDA 100 μM, 24 h, FIG. 5
Description: Cortical neurons (9×10^4 cells/well) were placed into 96-well cell culture plates, and were incubated at 37° C. for 24 h under 5% CO2. The medium was changed, and the cells were incubated for another 12 h. Drugs at different concentrations 1000 μM, 100 μM, 10 μM, 1 μM) were added, and the cells were incubated at 37° C. for 30 min. NMDA (15 μL) was then added (final concentration of NMDA is 100 μM), and the cells were incubated for 24 h at 37° C. for 24 h under 5% CO2.

[3] = test system: cortical neuronal cells; assay: Protection of cortical neuronal cells from H2O2-induced oxidative damage (MTT); format: cell-based; conditions: cortical neurons, FIG. 4
Description: Cortical neurons (9×10^4 cells/well) were placed into 96-well cell culture plates, and were incubated at 37° C. for 24 h under 5% CO2. The medium was changed, and the cells were incubated for another 12 h. Drugs at different concentrations were added, and the cells were incubated at 37° C. for 30 min. Hydrogen peroxide were then added, and the cells were incubated for 24 h at 37° C. for 24 h under 5% CO2. A solution of 3-(4,5-dimethylthiazol-2-ly)-2,5-diphenyl-tetrazoliun bromide (MTT) was added, and the cells were incubated for another 4 h before DMSO was added. After the crystals were completely dissolved (30 min), the absorbance was read at 570 nm with a spectrophotometer (Bio-Rad Model 680, Japan). The results were expressed as the percentage of the control (saline group).

[4] = test system: thrombus; assay: Thrombolytic activity in rats (inferior vena cava ligation, dried thrombus weight); format: in vivo; conditions: TBN 3.25 mg/kg i.v.; rat; FIG. 7
Description: The abdomen was then closed. Drugs were administered 2 h after ligation i.v. via the dorsal tail vein. The abdomen was reopened after […] of ligation. The thrombus was removed and dried at 50° C. for 24 h. The dried thrombus was weighted.

[5] = test system: thrombosis; conditions: rat arterio- and phlebo-thrombosis models; Liu and Sylvester 1990; cited from earlier work
[6] = intravenous injection, rat; Sheu et al. 1997; cited from earlier work
[7] = test system: MCA occlusion; conditions: male Wistar rats, 2 hour MCA occlusion, given 1 hour after recirculation; at 48 hours and 7 days; Kuroda et al. 1999; cited from earlier work
[8] = test system: permanent middle cerebral occlusion; conditions: monkeys, Marshall et al. 2001; cited from earlier work
[9] = test system: cerebral ischemia; conditions: rat 2-h MCA occlusion by intraluminal suture; Ley et al.; cited from earlier work

## Cc1nc(C)c(/C=[N+](\[O-])C(C)(C)C)nc1C [TBN, 2-[[(1,1-Dimethylethyl)oxidoimino]methyl]-3,5,6-trimethylpyrazine]
[1]
  protective effect in MCAo rat stroke model (area of infarction): significant protective effects
[2]
  protection of neuronal cells from NMDA toxicity: significantly protected
[3]; H2O2, MTT
  effectiveness relative to Eda in protecting cortical neuronal cells from H2O2-induced damage: approximately 10 fold
[3]; drug 30 min before H2O2, 24 h, MTT
  protection of cortical neuronal cells from H2O2-induced damage, compared with TMP and PBN: more effective than either TMP or PBN
[4]
  thrombolytic activity (dried thrombus weight): significant thrombolytic activity

## Cc1nc(C)c(C)nc1C [TMP, tetramethylpyrazine]
[5]
  thrombolytic activity: showed thrombolytic activity
[6]
  prolongation of bleeding time: 1.5 times

## CC(C)(C)[N+]([O-])=Cc1ccc(S(=O)(=O)[O-])cc1S(=O)(=O)[O-].[Na+].[Na+] [NXY-059, disodium 4-[(tert-butylimino)methyl]benzene-1,3-disulfonate N-oxide]
[7]
  infarct volume: significantly reduced infarct volume
[8]
  reduction of overall amount of brain damage vs saline-treated control: > 50%

## stilbazulenyl nitrone [STAZN]
[9]
  neurological deficits compared with vehicle controls: improved neurological deficits
